From ChEMBL document CHEMBL5370523, “Clinically approved small-molecule drugs for the treatment of rheumatoid arthritis” (Eur J Med Chem, 2023)

Key:
[1] = biological target: Prostaglandin G/H synthase 1 (Homo sapiens, UniProt P23219); type: tissue-based, Blood
Description: Inhibition of COX-1 in human whole blood preincubated for 60 mins followed by calcium ionophore A23187 addition and measured after 30 mins by radioimmunoassay

[2] = biological target: T1, Prostaglandin G/H synthase 2 (Homo sapiens, UniProt P35354); type: tissue-based, Blood
T1 sequence (P35354 whole entry): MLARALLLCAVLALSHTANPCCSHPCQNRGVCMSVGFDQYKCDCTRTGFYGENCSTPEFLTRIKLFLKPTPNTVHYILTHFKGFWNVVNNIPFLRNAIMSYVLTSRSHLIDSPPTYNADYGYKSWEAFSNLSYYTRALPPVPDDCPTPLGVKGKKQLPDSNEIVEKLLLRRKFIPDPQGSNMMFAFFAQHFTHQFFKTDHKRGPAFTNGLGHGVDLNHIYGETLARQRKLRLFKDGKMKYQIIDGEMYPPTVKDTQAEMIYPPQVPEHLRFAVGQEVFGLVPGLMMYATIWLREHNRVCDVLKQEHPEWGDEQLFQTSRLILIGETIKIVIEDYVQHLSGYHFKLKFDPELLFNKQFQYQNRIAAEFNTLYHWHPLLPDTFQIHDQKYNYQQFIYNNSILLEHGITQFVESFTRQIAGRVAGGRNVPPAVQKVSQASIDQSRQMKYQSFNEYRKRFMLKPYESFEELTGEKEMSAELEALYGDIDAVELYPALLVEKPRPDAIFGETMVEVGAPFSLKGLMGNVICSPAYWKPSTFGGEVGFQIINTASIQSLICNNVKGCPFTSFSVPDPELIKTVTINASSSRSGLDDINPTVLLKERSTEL

[3] = biological target: T1, Prostaglandin G/H synthase 2

Chain of Prostaglandin G/H synthase 1 (P23219 whole entry): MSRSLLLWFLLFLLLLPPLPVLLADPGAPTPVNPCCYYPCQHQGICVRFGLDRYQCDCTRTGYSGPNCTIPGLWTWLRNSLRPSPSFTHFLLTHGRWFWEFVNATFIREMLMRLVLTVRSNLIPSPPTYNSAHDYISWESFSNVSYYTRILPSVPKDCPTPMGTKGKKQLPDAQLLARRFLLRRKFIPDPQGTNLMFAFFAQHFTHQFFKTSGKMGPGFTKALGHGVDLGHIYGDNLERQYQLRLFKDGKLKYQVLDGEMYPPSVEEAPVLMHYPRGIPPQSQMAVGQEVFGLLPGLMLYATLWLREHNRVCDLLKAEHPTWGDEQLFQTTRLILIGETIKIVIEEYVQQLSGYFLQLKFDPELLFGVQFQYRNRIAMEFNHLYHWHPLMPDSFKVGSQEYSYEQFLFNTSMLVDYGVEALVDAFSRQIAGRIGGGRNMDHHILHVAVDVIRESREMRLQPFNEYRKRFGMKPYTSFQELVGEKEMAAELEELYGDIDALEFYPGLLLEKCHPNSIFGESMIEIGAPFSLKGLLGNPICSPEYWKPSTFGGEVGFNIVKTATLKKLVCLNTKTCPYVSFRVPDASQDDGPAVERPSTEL

Row | Compound | IC50 [1] | IC50 [2] | IC50 [3]
1 | Cc1ccc(C(=O)c2ccc(CC(=O)O)n2C)cc1 [TOLMETIN] | 350 nM | 820 nM | –
2 | O=C(O)CCc1nc(-c2ccccc2)c(-c2ccccc2)o1 [OXAPROZIN] | – | – | 36000 nM
